Patent US10724099B2, “Multiplex methods to assay mixed cell populations simultaneously” (The Broad Institute, Inc., priority 2012, dated 2020)

Experiments:
[1] = system: 25 barcoded lung adenocarcinoma cell lines; test: PRISM, mixture of 25 barcoded lung adenocarcinoma cell lines; format: cell-based, human; details: for viability relative to DMSO-treated control (relative inhibition profile): cell lines in mixture, 0-10 μM (puromycin 0-10 μg/ml), day 5
Description: PRISM detection was performed as follows. Genomic DNA from cell lysates was amplified by PCR using primers Biotin pLENTR4 (5′-Biotin-[…]-3′; SEQ ID NO:3) and pLENTF1 (5′-[…]-[…]-3′; SEQ ID NO:4). PCR product was hybridized to Luminex beads with covalently attached antisense barcodes, and streptavidin-phycoerythrin addition, washing, and detection on Luminex FlexMap machines was performed as previously described (Peck et al., Genome Biol 7, R61 (2006)). PCR without genomic DNA was hybridized with beads to serve as background control; signal for each bead was subtracted from each sample measurement. DMSO-treated cell mixtures were used as reference control for scaling of each cell line signal at the conclusion of each experiment (viability=100 for each cell line).
These lines were barcoded as described above, and equal numbers of cells of each cell lines were mixed together. Cell mixtures were plated in 384-well plates on day −1. On day 0, mixtures were challenged with compounds or vehicle, and on day 5 genomic DNA was harvested and barcodes quantitated. Barcode signal background was determined using beads hybridizing to PCR reactions lacking genomic DNA templates and was subtracted from all measurements. To account for different doubling times of cell lines and different baseline signals for each cell line, the barcode signal for each cell line was scaled to the signal of the vehicle-treated control at the end of the experiment (PRISM schema shown in FIG. 1A), so that the relative growth inhibition of each cell line was assessed.

[2] = system: 100 human cancer cell lines; test: CTG (CellTiterGlo ATP), 100 cell lines grown individually; format: cell-based; details: for reduction in cell viability in BRAF V600E mutant lines compared to BRAF wild-type lines: CTG (ATP), individual lines, day 3
From the text: (§1) To quantitatively compare the 100-cell line PRISM performance to traditional methods, PRISM was compared to the activity of 23 compounds across the same 100 cell lines grown individually, as recently reported (using either ATP content measurements using the CellTiterGlo (CTG), or direct enumeration of cell nuclei using an optical fluorescent imaging method (PerkinElmer Opera system (hereafter, OPTICAL)) and thus served as a gold standard against which PRISM could be compared (Barretina et al., Nature 483, 603 (Mar. 29, 2012)). The same parental cell lines were used in all three methods; in the PRISM method, a barcoded “daughter” line was generated from the common parental cell line. Compounds used in assays were replica-plated from the same source. The cell lines grown individually were assayed at day 3 following compound treatment, whereas the 100-cell line PRISM mixture was analyzed at day 5.
(§2) To compare the three methods for measuring cell viability, the AUC (Area Under the Curve, measured from the viability vs. logarithm of drug concentration curve) was calculated for each combination of compound and cell line and for each viability measurement method. The CTG and OPTICAL methods were generally correlated with Pearson R=0.801. CTG and PRISM correlated with R=0.663, and OPTICAL and PRISM correlated with R=0.720. […] To investigate whether particular cell lines or specific compounds were disproportionately responsible for divergent predictive results between PRISM and the other methods, we examined the ratio between […] or […]. […] In these rare cases, either the different assay conditions (5-day assay with PRISM, 3-day assay with OPTICAL and CTG) or the assay of cells in mixture might explain the discrepancy. Overall, however, PRISM appears to perform comparably to these other methods in global determinations of sensitivity to compounds in these 100 cell lines.

[3] = system: 100 human cancer cell lines; test: OPTICAL (Opera enumeration of nuclei), 100 cell lines grown individually; format: cell-based; details: for reduction in cell viability in BRAF V600E mutant lines compared to BRAF wild-type lines: OPTICAL (Nuclei), individual lines, day 3
From the text: as §1, §2

[4] = system: 100 human cancer cell lines; test: PRISM, 100 barcoded cancer cell lines in mixture; format: cell-based; details: for reduction in cell viability in BRAF V600E mutant lines compared to BRAF wild-type lines: mixture, day 5
Description: PRISM detection was performed as follows. Genomic DNA from cell lysates was amplified by PCR using primers Biotin pLENTR4 (5′-Biotin-[sequence]-3′; SEQ ID NO:3) and pLENTF1 (5′-[sequence]-[sequence]-3′; SEQ ID NO:4). […] PCR without genomic DNA was hybridized with beads to serve as background control; signal for each bead was subtracted from each sample measurement. DMSO-treated cell mixtures were used as reference control for scaling of each cell line signal at the conclusion of each experiment (viability=100 for each cell line).
To investigate cancer vulnerabilities that are common in multiple cancer types and to examine the extent to which assaying cells in mixture may be complicated by cell-cell interactions, a panel of 100 barcoded cell lines was created comprising 18 different cancer types, and these were challenged in mixture with each of 43 anticancer compounds (including both targeted and general cytotoxic agents) in 8-point dose response. Each compound was represented by 3,200 functional measurements (100 cell lines×8 doses×4 replicates). The assays were performed as follows. Frozen mixtures of barcoded cell lines were thawed (day −2) and replated (day −1) into 384-well microtiter plates. On day 0, compounds suspended in DMSO were pinned into cultures to achieve final concentrations of 0.0012, 0.0049, 0.019, 0.078, 0.3125, 1.25, 5, or 20 μg ml-1. On day 5, cells were washed with phosphate-buffered saline and lysed for 60 minutes at 60° C. in 20 mM Tris-HCl (pH 8.4), 50 mM KCl, 0.45% IGEPAL CA-630 (Sigma cat. 18896), 0.45% Tween-20 (Sigma cat. P9416), and 10% proteinase K (Qiagen cat. 19133). Proteinase K was inactivated by a 15-minute incubation at 95° C.

HCT-116 cells [5] = test: DNA content by propidium iodide flow cytometry; format: cell-based; details: 10 μM, 24 hours or 48 hours
Description: In addition, HCT-116 cells were treated with 10 μM of DMSO, or the Aurora Kinase Inhibitors barasertib, GSK1070916, MLN8054, BRD-7880, or tozasertib. 24 hours or 48 hours following treatment, cells were stained with propidium iodide and DNA content per cell was assessed using a Becton Dickinson LSR II flow cytometer.

HCT-116 cells [6] = test: Western blot phosphoserine 10-histone H3; format: cell-based; details: 10 μM
Description: Finally, HCT-116 cells were treated with 10 μM of DMSO, barasertib, GSK1070916, MLN8054, BRD-7880, or tozasertib. Cells lysates were probed on Western blot using antibodies (diluted 1:1000) to histone H3 (Abcam cat. no. 24834), phosphoserine 10-histone H3 (Cell Signaling Technology cat no. 3377SS), aurora kinase B (Millipore cat. no. 04-1036), or beta-actin (Santa Cruz Biotechnology cat. no. sc-47778) and detected using a LI-COR Odyssey analyzer.

[7] = system: 24 barcoded human lung adenocarcinoma cell lines; test: In vivo PRISM, xenograft of 24 barcoded lung adenocarcinoma cell lines in NSG mice; details: 50 mg/kg once daily by gavage for 16 days, vs vehicle
From the text: The tumors were than resected, and the abundance of each cell line measured by PRISM.

308 kinases = test: Kinase activity profiling, Millipore KinaseProfiler; format: biochemical

Row | SMILES | viability relative to DMSO-treated control (relative inhibition profile) [1] | reduction in cell viability in BRAF V600E mutant lines compared to BRAF wild-type lines [2] | reduction in cell viability in BRAF V600E mutant lines compared to BRAF wild-type lines [3] | reduction in cell viability in BRAF V600E mutant lines compared to BRAF wild-type lines [4] | DNA content per cell (HCT-116 cells [5]) | phosphorylation of serine 10 on histone H3 (HCT-116 cells [6]) | further results
1 | COc1ccc(C[C@H](N)C(=O)N[C@H]2[C@@H](O)[C@H](n3cnc4c(N(C)C)ncnc43)O[C@@H]2CO)cc1 [puromycin] | uniform cell death across the cell line mixture |  |  |  |  |  | 
2 | CNC(=O)c1cc(Oc2ccc(NC(=O)Nc3ccc(Cl)c(C(F)(F)F)c3)cc2)ccn1 [sorafenib] |  | did not demonstrate significant reductions | did not demonstrate significant reductions | did not demonstrate significant reductions |  |  | 
3 | COc1cc(N2CCC(N3CCN(C)CC3)CC2)ccc1Nc1ncc(Cl)c(Nc2ccccc2S(=O)(=O)C(C)C)n1 [NVP-TAE-684] | selective killing was observed of H3122, but not H2228 |  |  |  |  |  | 
4 | CCn1cc(-c2ccnc3[nH]c(-c4cccc(CN(C)C)c4)cc23)c(-c2ccc(NC(=O)N(C)C)cc2)n1 [GSK1070916] |  |  |  |  | increased DNA content | decrease phosphorylation of serine 10 on histone H3 | 
5 | C#Cc1cccc(Nc2ncnc3cc(OCCOC)c(OCCOC)cc23)c1 [erlotinib] | selective and dose-dependent decrease of four EGFR-mutant cell lines |  |  |  |  |  | sensitivity of HCC2935 among the 4 EGFR-mutant lines in vitro ([1]; HCC2935, FIG. 1b): least sensitive; sensitivity of EGFR-mutant lines compared to EGFR wild-type lines ([2]; CTG, did not reach statistical significance): trend towards increased sensitivity; sensitivity of EGFR-mutant lines compared to EGFR wild-type lines ([3]; OPTICAL, did not reach statistical significance): trend towards increased sensitivity; representation of the detectable 19 wt-EGFR lines [7]: mostly unchanged or increased in representation; sensitivity of EGFR-mutant lines compared to EGFR wild-type lines ([4]; did not reach statistical significance): trend towards increased sensitivity
6 | Cn1c(Nc2ccc(C(F)(F)F)cc2)nc2cc(Oc3ccnc(-c4ncc(C(F)(F)F)[nH]4)c3)ccc21 [RAF-265] |  |  |  | a similar reduction was seen only with PRISM |  |  | 
7 | O=C(O)c1ccc(Nc2ncc3c(n2)-c2ccc(Cl)cc2C(c2c(F)cccc2F)=NC3)cc1 [MLN8054] |  |  |  |  | increased DNA content | decrease phosphorylation of serine 10 on histone H3 | 
8 | CCCS(=O)(=O)Nc1ccc(F)c(C(=O)c2c[nH]c3ncc(Cl)cc23)c1F [PLX4720] |  | significant (two-tailed t-test, p<0.05) reductions in cell viability | significant (two-tailed t-test, p<0.05) reductions in cell viability | significant (two-tailed t-test, p<0.05) reductions in cell viability |  |  | 
9 | Cc1cc(Nc2cc(N3CCN(C)CC3)nc(Sc3ccc(NC(=O)C4CC4)cc3)n2)[nH]n1 [tozasertib] |  |  |  |  | increased DNA content | decrease phosphorylation of serine 10 on histone H3 | significant inhibition (defined as activity<25% control) across 308 kinases (308 kinases): inhibited aurora kinases A, B, and C, in addition to several other kinases
10 | Cn1cnc2c(F)c(Nc3ccc(Br)cc3Cl)c(C(=O)NOCCO)cc21 [AZD6244] |  | significant reduction | only a trend towards this reduction | only a trend towards this reduction |  |  | 
